Experimental data as given in ChEMBL document CHEMBL1135887, “Substituted pentacyclic carbazolones as novel muscarinic allosteric agents: synthesis and structure-affinity and cooperativity relationships” (J Med Chem, 2002).

What was measured:
[1] = biological target: T1, Muscarinic acetylcholine receptor M4 (Homo sapiens) (UniProt P08173); assay: Subtype selectivity and the cooperativity with N-methyl Scopolamine (NMS) at Muscarinic acetylcholine receptor M4
T1 sequence (whole entry): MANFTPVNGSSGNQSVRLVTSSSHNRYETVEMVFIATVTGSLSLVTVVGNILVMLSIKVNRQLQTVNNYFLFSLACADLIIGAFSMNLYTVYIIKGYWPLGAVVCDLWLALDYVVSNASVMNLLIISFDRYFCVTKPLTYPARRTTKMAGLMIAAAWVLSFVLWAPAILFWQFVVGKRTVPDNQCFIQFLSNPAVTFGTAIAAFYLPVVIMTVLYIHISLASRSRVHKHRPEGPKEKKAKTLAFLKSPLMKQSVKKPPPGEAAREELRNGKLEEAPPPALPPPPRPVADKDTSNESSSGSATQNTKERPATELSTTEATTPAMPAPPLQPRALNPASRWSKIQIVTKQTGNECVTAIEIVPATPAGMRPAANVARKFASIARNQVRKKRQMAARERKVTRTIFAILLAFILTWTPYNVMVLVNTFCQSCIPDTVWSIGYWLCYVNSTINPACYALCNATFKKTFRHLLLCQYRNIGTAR

[2] = biological target: T2, Muscarinic acetylcholine receptor M1 (Homo sapiens) (UniProt P11229); assay: Logarithm of affinity (log 1/M) at the (N-methyl Scopolamine) NMS-liganded muscarinic acetylcholine receptor M1 by using semiquantitative equilibrium and off-rate assay
T2 sequence (whole entry): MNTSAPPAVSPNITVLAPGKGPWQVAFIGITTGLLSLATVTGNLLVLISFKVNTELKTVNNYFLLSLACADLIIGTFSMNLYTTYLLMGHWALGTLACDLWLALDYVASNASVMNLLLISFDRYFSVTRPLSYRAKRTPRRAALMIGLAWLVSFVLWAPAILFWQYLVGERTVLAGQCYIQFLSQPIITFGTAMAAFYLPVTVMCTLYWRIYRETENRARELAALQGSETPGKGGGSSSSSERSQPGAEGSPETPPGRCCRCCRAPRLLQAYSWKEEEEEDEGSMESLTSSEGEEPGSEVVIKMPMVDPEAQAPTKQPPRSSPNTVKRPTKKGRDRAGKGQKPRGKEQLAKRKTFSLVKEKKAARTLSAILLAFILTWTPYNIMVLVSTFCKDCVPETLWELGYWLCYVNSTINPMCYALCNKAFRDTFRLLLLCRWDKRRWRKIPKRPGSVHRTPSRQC

[3] = biological target: T2, Muscarinic acetylcholine receptor M1 (Homo sapiens); assay: Subtype selectivity and the cooperativity with N-methyl Scopolamine (NMS) at Muscarinic acetylcholine receptor M1; activity value ranges from 0.81-1.19.
[4] = biological target: T2, Muscarinic acetylcholine receptor M1 (Homo sapiens); assay: Logarithm of affinity (log 1/M) at the free muscarinic acetylcholine receptor M1 by using semiquantitative equilibrium and off-rate assay
[5] = biological target: Muscarinic acetylcholine receptor M3 (Homo sapiens) (UniProt P20309); assay: Subtype selectivity and the cooperativity with N-methyl Scopolamine (NMS) at Muscarinic acetylcholine receptor M3; activity range is 0.81-1.19.
[6] = biological target: T1, Muscarinic acetylcholine receptor M4 (Homo sapiens); assay: Logarithm of affinity (log 1/M) at the (N-methyl Scopolamine) NMS-liganded muscarinic acetylcholine receptor M4 by using semiquantitative equilibrium and off-rate assay
[7] = biological target: T1, Muscarinic acetylcholine receptor M4 (Homo sapiens); assay: Logarithm of affinity (log 1/M) at the muscarinic acetylcholine receptor M4 by using semiquantitative equilibrium and off-rate assay
[8] = biological target: T3, Muscarinic acetylcholine receptor M2 (Homo sapiens) (UniProt P08172); assay: Logarithm of affinity (log 1/M) at the (N-methyl Scopolamine) NMS-liganded muscarinic acetylcholine receptor M2 by using semiquantitative equilibrium and off-rate assay
T3 sequence (whole entry): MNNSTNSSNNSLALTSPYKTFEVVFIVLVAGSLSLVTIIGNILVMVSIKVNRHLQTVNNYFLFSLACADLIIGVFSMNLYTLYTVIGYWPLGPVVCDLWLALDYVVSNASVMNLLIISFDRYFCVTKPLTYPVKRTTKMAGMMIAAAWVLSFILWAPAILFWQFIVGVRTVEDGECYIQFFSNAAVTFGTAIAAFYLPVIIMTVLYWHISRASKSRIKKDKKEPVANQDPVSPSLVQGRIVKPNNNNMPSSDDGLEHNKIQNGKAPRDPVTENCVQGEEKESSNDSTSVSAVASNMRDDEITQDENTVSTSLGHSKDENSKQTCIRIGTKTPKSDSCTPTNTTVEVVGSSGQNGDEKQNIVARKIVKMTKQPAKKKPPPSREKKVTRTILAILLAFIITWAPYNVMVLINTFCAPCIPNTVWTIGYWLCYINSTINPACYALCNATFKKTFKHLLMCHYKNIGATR

[9] = biological target: T3, Muscarinic acetylcholine receptor M2 (Homo sapiens); assay: Logarithm of affinity (log 1/M) at the muscarinic acetylcholine receptor M2 by using semiquantitative equilibrium and off-rate assay
[10] = biological target: T3, Muscarinic acetylcholine receptor M2 (Homo sapiens); assay: Subtype selectivity and the cooperativity with N-methyl Scopolamine (NMS) at Muscarinic acetylcholine receptor M2
[11] = biological target: Muscarinic acetylcholine receptor M3 (Homo sapiens) (UniProt P20309); assay: Logarithm of affinity (log 1/M) at the (N-methyl Scopolamine) NMS-liganded muscarinic acetylcholine receptor M3 by using semiquantitative equilibrium and off-rate assay
[12] = biological target: Muscarinic acetylcholine receptor M3 (Homo sapiens) (UniProt P20309); assay: Logarithm of affinity (log 1/M) at the muscarinic acetylcholine receptor M3 by using semiquantitative equilibrium and off-rate assay
[13] = biological target: T2, Muscarinic acetylcholine receptor M1 (Homo sapiens); assay: Subtype selectivity and the cooperativity with N-methyl Scopolamine (NMS) at Muscarinic acetylcholine receptor M1; Activity range is 1.81-1.19
[14] = biological target: T1, Muscarinic acetylcholine receptor M4 (Homo sapiens); assay: Subtype selectivity and cooperativity with N-methyl Scopolamine (NMS) at Muscarinic acetylcholine receptor M4; Activity range is 1.2-3
[15] = biological target: Muscarinic acetylcholine receptor M3 (Homo sapiens) (UniProt P20309); assay: Subtype selectivity and the cooperativity with N-methyl Scopolamine (NMS) at Muscarinic acetylcholine receptor M3; […]
[16] = biological target: T3, Muscarinic acetylcholine receptor M2 (Homo sapiens); assay: Subtype selectivity and the cooperativity with N-methyl Scopolamine (NMS) at Muscarinic acetylcholine receptor M2; activity range is 1.2-3.
[17] = biological target: T1, Muscarinic acetylcholine receptor M4 (Homo sapiens); assay: Subtype selectivity and the cooperativity with N-methyl Scopolamine (NMS) at Muscarinic acetylcholine receptor M4; Activity range is 0.81-1.19
[18] = biological target: T2, Muscarinic acetylcholine receptor M1 (Homo sapiens); assay: Subtype selectivity and the cooperativity with N-methyl Scopolamine (NMS) at Muscarinic acetylcholine receptor M1 Activity range is 0.2-0.8
[19] = biological target: T3, Muscarinic acetylcholine receptor M2 (Homo sapiens); assay: Subtype selectivity and the cooperativity with N-methyl Scopolamine (NMS) at Muscarinic acetylcholine receptor M2; Activity range is 1.2-3
[20] = biological target: T1, Muscarinic acetylcholine receptor M4 (Homo sapiens); assay: Subtype selectivity and the cooperativity with N-methyl Scopolamine (NMS) at Muscarinic acetylcholine receptor M4; Activity range is 0.2-0.8
[21] = biological target: Muscarinic acetylcholine receptor M3 (Homo sapiens) (UniProt P20309); assay: Subtype selectivity and the cooperativity with N-methyl Scopolamine (NMS) at muscarinic acetylcholine receptor M3; Activity range is 0.2-0.8
[22] = biological target: T3, Muscarinic acetylcholine receptor M2 (Homo sapiens); assay: Subtype selectivity and the cooperativity with N-methyl Scopolamine (NMS) at muscarinic M2 receptor; Activity range is 0.81-1.19
[23] = biological target: T2, Muscarinic acetylcholine receptor M1 (Homo sapiens); assay: Subtype selectivity and the cooperativity with N-methyl Scopolamine (NMS) at Muscarinic acetylcholine receptor M1
[24] = biological target: T2, Muscarinic acetylcholine receptor M1 (Homo sapiens); assay: Subtype selectivity and the cooperativity with N-methyl Scopolamine (NMS) at Muscarinic acetylcholine receptor M1; Activity range is 1.2-3
[25] = biological target: Muscarinic acetylcholine receptor M3 (Homo sapiens) (UniProt P20309); assay: Subtype selectivity and the cooperativity with N-methyl Scopolamine (NMS) at Muscarinic acetylcholine receptor M3; Activity range is 1.2-3
[26] = biological target: T1, Muscarinic acetylcholine receptor M4 (Homo sapiens); assay: Subtype selectivity and the cooperativity with N-methyl Scopolamine (NMS) at Muscarinic acetylcholine receptor M4; activity range is 0.2-0.8.
[27] = biological target: Muscarinic acetylcholine receptor M3 (Homo sapiens) (UniProt P20309); assay: Subtype selectivity and the cooperativity with N-methyl Scopolamine (NMS) at Muscarinic acetylcholine receptor M3; activity ranges is 0.2-0.8.
[28] = biological target: T2, Muscarinic acetylcholine receptor M1 (Homo sapiens); assay: Subtype selectivity and the cooperativity with N-methyl Scopolamine (NMS) at Muscarinic acetylcholine receptor M1,activity range is 0.2-0.8.
[29] = biological target: T3, Muscarinic acetylcholine receptor M2 (Homo sapiens); assay: Subtype selectivity and the cooperativity with N-methyl Scopolamine (NMS) at Muscarinic acetylcholine receptor M2,activity range is 1.2-3.
[30] = biological target: T1, Muscarinic acetylcholine receptor M4 (Homo sapiens); assay: Subtype selectivity and the cooperativity with N-methyl Scopolamine (NMS) at Muscarinic acetylcholine receptor M4; Activity range is 081-1.19
[31] = biological target: T2, Muscarinic acetylcholine receptor M1 (Homo sapiens); assay: Subtype selectivity and the cooperativity with N-methyl Scopolamine (NMS) at Muscarinic acetylcholine receptor M1; Activity range is 0.2-0.8
[32] = biological target: T3, Muscarinic acetylcholine receptor M2 (Homo sapiens); assay: Subtype selectivity and the cooperativity with N-methyl Scopolamine (NMS) at Muscarinic acetylcholine receptor M2; Activity range is 0.81-1.19
[33] = biological target: T1, Muscarinic acetylcholine receptor M4 (Homo sapiens); assay: Subtype selectivity and the cooperativity with N-methyl Scopolamine (NMS) at Muscarinic acetylcholine receptor M4; Activity range is 1.2-3

Chain of Muscarinic acetylcholine receptor M3 (Homo sapiens) (P20309 whole entry, looked up): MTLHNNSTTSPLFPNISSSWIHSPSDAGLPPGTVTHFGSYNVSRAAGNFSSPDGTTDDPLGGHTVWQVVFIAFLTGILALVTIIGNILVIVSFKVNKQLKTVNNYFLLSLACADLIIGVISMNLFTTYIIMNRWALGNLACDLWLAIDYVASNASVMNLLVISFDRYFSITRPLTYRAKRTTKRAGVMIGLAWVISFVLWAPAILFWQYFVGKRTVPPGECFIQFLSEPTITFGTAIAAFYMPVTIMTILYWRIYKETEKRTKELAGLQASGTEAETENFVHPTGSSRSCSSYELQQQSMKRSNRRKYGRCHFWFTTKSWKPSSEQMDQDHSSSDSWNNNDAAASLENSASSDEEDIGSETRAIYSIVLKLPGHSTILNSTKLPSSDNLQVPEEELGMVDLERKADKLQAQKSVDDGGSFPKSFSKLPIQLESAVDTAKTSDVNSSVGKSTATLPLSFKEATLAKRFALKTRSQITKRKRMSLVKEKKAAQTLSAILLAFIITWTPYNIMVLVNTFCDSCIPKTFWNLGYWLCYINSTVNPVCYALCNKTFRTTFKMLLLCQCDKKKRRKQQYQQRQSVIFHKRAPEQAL

Row | Structure (SMILES) | Log 1/M [2] | Log 1/M [4] | Log 1/M [6] | Log 1/M [7] | Log 1/M [8] | Log 1/M [9] | Log 1/M [11] | Log 1/M [12] | Cooperativity [15] | Cooperativity [19] | Cooperativity [21] | Cooperativity [31] | further results
1 | COc1cc2c3c4c(c(COC(C)=O)c5c3n(c2cc1OC)C(=O)CC5)CNCC4 | 6.16 | 6.09 | 6.55 | 5.91 | 7.21 | 6.63 | 5.85 | 5.69 | – | – | – | – | Cooperativity [1]: > 3; Cooperativity [3]: 1.19; Cooperativity [5]: 1.19; Cooperativity [10]: > 3
2 | COc1cccc2c1c1c3c(cc4c1n2C(=O)CC4)CNCC3 | 5.95 | 6.5 | 6.26 | 6.25 | 6.7 | 6.43 | 5.52 | 5.58 | 1.19 | 3 | – | – | Cooperativity [17]: 1.19; Cooperativity [18]: 0.8
3 | O=C1CCc2cc3c(c4c5cc6c(cc5n1c24)OCO6)CCNC3 | 5.99 | 6.06 | 5.73 | 5.29 | 6.31 | 6.18 | 5.06 | 5.61 | – | – | – | – | Cooperativity [26]: 0.8; Cooperativity [27]: 0.8; Cooperativity [28]: 0.8; Cooperativity [29]: 3
4 | COc1cc2c3c4c(cc5c3n(c2cc1OC)C(=O)CC5)CNCC4 | 5.81 | 6.05 | 6.05 | 4.8 | 6.47 | 6.15 | 5.15 | 5.2 | 1.19 | 3 | – | 0.8 | Cooperativity [33]: 3

Further lines, with some results ahead:

Row | Log 1/M [2] | Log 1/M [4] | Log 1/M [6] | Log 1/M [7] | Log 1/M [8] | Log 1/M [9] | Log 1/M [11] | Log 1/M [12] | Cooperativity [15] | Cooperativity [19] | Cooperativity [21] | Cooperativity [31] | Structure (SMILES) | further results
5 | 6.07 | 6.04 | 5.9 | 5.56 | 5.81 | 5.66 | 5.12 | 5.13 | 1.19 | – | – | – | O=C1CCc2cc3c(c4c5cc(O)ccc5n1c24)CNCC3 | Cooperativity [13]: 1.19; Cooperativity [14]: 3; Cooperativity [16]: 3
6 | 5.62 | 6.32 | 6 | 5.55 | 6.43 | 6.44 | 5.09 | 5.64 | – | – | 0.8 | – | COC(=O)c1ccc2c(c1)c1c3c(cc4c1n2C(=O)CC4)CNCC3 | Cooperativity [20]: 0.8; Cooperativity [22]: 1.19; Cooperativity [23]: < 0.2
7 | 6.44 | 6.19 | 6.57 | 5.9 | 6.97 | 6.28 | 5.53 | 5.19 | – | – | – | – | COc1cc2c3c4c(cc5c3n(c2cc1OC)C(=O)CC5)CCNC4 | Cooperativity [1]: > 3; Cooperativity [24]: 3; Cooperativity [25]: 3; Cooperativity [10]: > 3
8 | 5.91 | 6.1 | 5.74 | 5.71 | 6.05 | 5.87 | 4.76 | 5.21 | – | 3 | 0.8 | 0.8 | COc1ccc2c(c1)c1c3c(cc4c1n2C(=O)CC4)CCNC3 | Cooperativity [30]: 1.19
9 | 6.13 | 6.59 | 5.65 | 5.52 | 5.64 | 5.6 | 5.23 | 5.6 | – | – | 0.8 | 0.8 | O=C1CCc2cc3c(c4c5ccc(O)cc5n1c24)CNCC3 | Cooperativity [17]: 1.19; Cooperativity [32]: 1.19
